From ChEMBL document CHEMBL1145159 (J Med Chem, 2005)
pIC50: −log10 of the molar value. Square brackets hold non-standard residues; d marks the D form. Peptide text beside a SMILES is read from it. Hyp = O=C(O)[C@@H]1C[C@@H](O)CN1

How the values were obtained:
[1] = target: Neuronal acetylcholine receptor; alpha3/alpha6/beta2/beta3 (Homo sapiens, UniProt P17787+P32297+Q05901+Q15825); experiment: Inhibitory concentration against Nicotinic acetylcholine receptor alpha-6-alpha-3-beta-2-beta-3; Range is 0.7-1 nM; format: protein-complex assay
[2] = target: T1, Neuronal acetylcholine receptor; alpha3/beta4 (Homo sapiens, UniProt P30926+P32297); experiment: Inhibitory concentration against Nicotinic acetylcholine receptor alpha3-beta4; Range is 0.7-1 nM; format: protein-complex assay
T1 sequence (P30926 whole entry): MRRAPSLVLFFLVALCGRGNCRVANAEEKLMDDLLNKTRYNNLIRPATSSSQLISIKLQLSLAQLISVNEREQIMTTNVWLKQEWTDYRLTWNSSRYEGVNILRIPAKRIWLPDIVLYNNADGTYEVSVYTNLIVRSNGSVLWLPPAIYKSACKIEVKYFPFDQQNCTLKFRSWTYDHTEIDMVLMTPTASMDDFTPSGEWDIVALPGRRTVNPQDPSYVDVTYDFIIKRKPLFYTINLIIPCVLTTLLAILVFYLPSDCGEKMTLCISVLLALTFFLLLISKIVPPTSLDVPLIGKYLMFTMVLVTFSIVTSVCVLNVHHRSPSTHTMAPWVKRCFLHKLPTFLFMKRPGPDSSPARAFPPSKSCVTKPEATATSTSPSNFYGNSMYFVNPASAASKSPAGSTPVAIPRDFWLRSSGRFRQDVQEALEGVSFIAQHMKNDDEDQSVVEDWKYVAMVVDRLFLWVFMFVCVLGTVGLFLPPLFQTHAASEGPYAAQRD
T1 sequence (P32297 whole entry): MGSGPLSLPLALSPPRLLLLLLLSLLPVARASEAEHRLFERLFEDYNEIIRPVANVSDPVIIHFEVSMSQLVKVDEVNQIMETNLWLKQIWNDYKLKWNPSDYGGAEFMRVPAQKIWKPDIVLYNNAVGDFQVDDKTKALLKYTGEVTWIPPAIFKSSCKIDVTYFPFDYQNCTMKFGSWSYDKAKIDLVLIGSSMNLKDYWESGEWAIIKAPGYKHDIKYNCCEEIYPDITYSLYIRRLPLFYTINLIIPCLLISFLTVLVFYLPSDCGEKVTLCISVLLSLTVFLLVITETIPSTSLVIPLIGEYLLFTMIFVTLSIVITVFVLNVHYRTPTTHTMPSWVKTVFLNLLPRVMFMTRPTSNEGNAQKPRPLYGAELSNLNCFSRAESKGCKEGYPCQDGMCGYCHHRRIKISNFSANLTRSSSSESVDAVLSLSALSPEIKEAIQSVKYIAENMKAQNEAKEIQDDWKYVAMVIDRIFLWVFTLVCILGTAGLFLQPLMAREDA

[3] = target: T2, Neuronal acetylcholine receptor; alpha3/beta2 (Homo sapiens, UniProt P17787+P32297); experiment: Inhibitory concentration against Nicotinic acetylcholine receptor alpha3-beta2; Range is 3-5 nM; format: protein-complex assay
T2 sequence (P17787 whole entry): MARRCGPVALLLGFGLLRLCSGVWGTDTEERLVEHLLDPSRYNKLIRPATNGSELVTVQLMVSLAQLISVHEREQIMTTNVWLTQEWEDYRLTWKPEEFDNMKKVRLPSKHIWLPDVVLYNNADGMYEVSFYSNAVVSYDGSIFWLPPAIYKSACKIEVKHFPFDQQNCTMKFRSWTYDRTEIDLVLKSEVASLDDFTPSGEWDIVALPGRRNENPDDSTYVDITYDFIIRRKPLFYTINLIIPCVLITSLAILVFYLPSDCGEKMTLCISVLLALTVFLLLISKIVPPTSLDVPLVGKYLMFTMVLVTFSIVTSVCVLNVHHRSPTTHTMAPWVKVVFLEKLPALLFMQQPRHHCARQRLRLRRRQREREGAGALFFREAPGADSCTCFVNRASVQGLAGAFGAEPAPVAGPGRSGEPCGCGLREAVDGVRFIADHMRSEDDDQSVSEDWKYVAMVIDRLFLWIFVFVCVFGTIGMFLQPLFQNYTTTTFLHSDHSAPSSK
T2 sequence (P32297 whole entry): as the sequence (P32297 whole entry) above

[4] = target: T1, Neuronal acetylcholine receptor; alpha3/beta4; experiment: Inhibitory concentration against Nicotinic acetylcholine receptor alpha3-beta4; Range is 3-5 nM; format: protein-complex assay
[5] = target: T3, Neuronal acetylcholine receptor; alpha4/beta2 (Homo sapiens, UniProt P17787+P43681); experiment: Inhibitory concentration against Nicotinic acetylcholine receptor alpha4-beta2; Range is 3-5 nM; format: protein-complex assay
T3 sequence (P17787 whole entry): as the sequence (P17787 whole entry) above
T3 sequence (P43681 whole entry): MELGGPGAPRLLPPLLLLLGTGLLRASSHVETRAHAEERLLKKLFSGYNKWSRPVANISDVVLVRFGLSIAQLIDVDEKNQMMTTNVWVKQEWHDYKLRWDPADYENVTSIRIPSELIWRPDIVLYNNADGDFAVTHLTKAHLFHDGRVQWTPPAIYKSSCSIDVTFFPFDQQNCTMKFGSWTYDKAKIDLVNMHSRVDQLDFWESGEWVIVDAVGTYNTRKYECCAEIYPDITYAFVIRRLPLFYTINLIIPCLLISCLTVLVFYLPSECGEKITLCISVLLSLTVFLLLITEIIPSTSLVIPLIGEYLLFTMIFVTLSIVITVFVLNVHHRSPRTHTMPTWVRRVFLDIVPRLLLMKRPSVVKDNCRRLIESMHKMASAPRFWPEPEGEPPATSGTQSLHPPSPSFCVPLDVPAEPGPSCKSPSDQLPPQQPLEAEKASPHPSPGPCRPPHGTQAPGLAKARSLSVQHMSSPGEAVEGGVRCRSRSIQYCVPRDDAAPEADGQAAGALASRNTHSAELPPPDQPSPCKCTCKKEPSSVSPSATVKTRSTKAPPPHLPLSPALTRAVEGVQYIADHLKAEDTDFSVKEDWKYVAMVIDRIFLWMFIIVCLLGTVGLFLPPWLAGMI

[6] = target: T4, Neuronal acetylcholine receptor; alpha4/beta4 (Homo sapiens, UniProt P30926+P43681); experiment: Inhibitory concentration against Nicotinic acetylcholine receptor alpha4-beta4; Range is 3-5 nM; format: protein-complex assay
[7] = target: T5, Neuronal acetylcholine receptor subunit alpha-7 (Homo sapiens, UniProt P36544); experiment: Inhibitory concentration against Nicotinic acetylcholine receptor alpha-7 Range is 3-5 nM
T5 sequence (P36544 whole entry): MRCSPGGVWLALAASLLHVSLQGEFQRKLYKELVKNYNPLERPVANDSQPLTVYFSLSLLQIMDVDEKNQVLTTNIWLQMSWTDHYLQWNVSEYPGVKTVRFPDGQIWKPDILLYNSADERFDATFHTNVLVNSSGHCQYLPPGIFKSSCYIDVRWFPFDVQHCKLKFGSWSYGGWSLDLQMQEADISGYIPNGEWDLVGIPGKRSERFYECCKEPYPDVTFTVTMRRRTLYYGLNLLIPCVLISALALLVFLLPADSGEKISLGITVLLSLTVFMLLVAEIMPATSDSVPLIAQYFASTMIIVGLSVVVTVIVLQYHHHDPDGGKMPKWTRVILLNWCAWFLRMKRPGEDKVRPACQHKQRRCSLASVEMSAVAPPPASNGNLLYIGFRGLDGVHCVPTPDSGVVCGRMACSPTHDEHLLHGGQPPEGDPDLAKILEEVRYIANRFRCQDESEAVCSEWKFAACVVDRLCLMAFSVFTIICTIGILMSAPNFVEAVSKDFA

[8] = Inhibitory concentration against Nicotinic acetylcholine receptor alpha-6-alpha-4-beta-4; Range is 0.7-1 nM
[9] = Inhibitory concentration against Nicotinic acetylcholine receptor alpha-6-alpha-3-beta-2; Range is 0.5-8 nM; set-up: species or system Homo sapiens
[10] = target: T2, Neuronal acetylcholine receptor; alpha3/beta2; experiment: Inhibitory concentration against Nicotinic acetylcholine receptor alpha3-beta2; Range is 0.5-8 nM; format: protein-complex assay
[11] = target: T5, Neuronal acetylcholine receptor subunit alpha-7; experiment: Inhibitory concentration against Nicotinic acetylcholine receptor alpha7; Range is 0.5-8 nM
[12] = target: T3, Neuronal acetylcholine receptor; alpha4/beta2; experiment: Inhibitory concentration against Nicotinic acetylcholine receptor alpha4-beta2; Range is 0.5-8 nM; format: protein-complex assay
[13] = target: T6, Neuronal acetylcholine receptor; alpha2/beta2 (Homo sapiens, UniProt P17787+Q15822); experiment: Inhibitory concentration against Nicotinic acetylcholine receptor alpha2-beta2; format: protein-complex assay
T6 sequence (P17787 whole entry): as the sequence (P17787 whole entry) above
T6 sequence (Q15822 whole entry): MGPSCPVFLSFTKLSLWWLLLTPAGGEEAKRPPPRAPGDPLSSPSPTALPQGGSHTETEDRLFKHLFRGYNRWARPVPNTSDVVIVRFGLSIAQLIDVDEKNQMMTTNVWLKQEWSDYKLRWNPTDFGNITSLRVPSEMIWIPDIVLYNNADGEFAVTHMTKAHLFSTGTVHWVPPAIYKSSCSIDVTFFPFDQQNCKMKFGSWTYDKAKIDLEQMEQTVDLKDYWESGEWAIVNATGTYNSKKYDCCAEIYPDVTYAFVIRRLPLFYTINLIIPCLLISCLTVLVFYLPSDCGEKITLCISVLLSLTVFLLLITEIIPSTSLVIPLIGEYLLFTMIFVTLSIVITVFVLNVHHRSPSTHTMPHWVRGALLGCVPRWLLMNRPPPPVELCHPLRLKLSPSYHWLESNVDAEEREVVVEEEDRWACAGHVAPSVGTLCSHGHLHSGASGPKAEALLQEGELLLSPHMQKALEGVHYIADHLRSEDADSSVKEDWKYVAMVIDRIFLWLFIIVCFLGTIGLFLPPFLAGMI

[14] = target: T2, Neuronal acetylcholine receptor; alpha3/beta2; experiment: Inhibitory concentration against Nicotinic acetylcholine receptor alpha3-beta2; format: protein-complex assay
[15] = target: T3, Neuronal acetylcholine receptor; alpha4/beta2; experiment: Inhibitory concentration against Nicotinic acetylcholine receptor alpha4-beta2; format: protein-complex assay
[16] = target: T5, Neuronal acetylcholine receptor subunit alpha-7; experiment: Inhibitory concentration against Nicotinic acetylcholine receptor alpha 7
[17] = Inhibitory concentration against Nicotinic acetylcholine receptor alpha 6/alpha-3-beta-4; Range is 0.3-1.5 nM; set-up: species or system Homo sapiens
[18] = Inhibitory concentration against Nicotinic acetylcholine receptor alpha-6-alpha-3-beta-2; Range is 0.3-1.5 nM; set-up: species or system Homo sapiens
[19] = Inhibitory concentration against Nicotinic acetylcholine receptor alpha-6-alpha-3-beta-2; Range is 0.7-1 nM; set-up: species or system Homo sapiens
[20] = Inhibitory concentration against Nicotinic acetylcholine receptor alpha6-beta4; Range is 0.7-1 nM; set-up: species or system Homo sapiens
[21] = target: T1, Neuronal acetylcholine receptor; alpha3/beta4; experiment: Inhibitory concentration against Nicotinic acetylcholine receptor alpha3-beta4; Range is 100-200 nM; format: protein-complex assay
[22] = target: T5, Neuronal acetylcholine receptor subunit alpha-7; experiment: Inhibitory concentration against Nicotinic acetylcholine receptor alpha7; Range is 100-200 nM
[23] = target: Neuronal acetylcholine receptor subunit alpha-9 (Homo sapiens, UniProt Q9UGM1); experiment: Inhibitory concentration against Nicotinic acetylcholine receptor alpha9; Range is 100-200 nM
[24] = target: T6, Neuronal acetylcholine receptor; alpha2/beta2; experiment: Inhibitory concentration against Nicotinic acetylcholine receptor alpha2-beta2; Range is 0.3-1.5 nM; format: protein-complex assay
[25] = target: T2, Neuronal acetylcholine receptor; alpha3/beta2; experiment: Inhibitory concentration against Nicotinic acetylcholine receptor alpha3-beta2; Range is 0.3-1.5 nM; format: protein-complex assay
[26] = target: T1, Neuronal acetylcholine receptor; alpha3/beta4; experiment: Inhibitory concentration against Nicotinic acetylcholine receptor alpha3-beta4; Range is 0.3-1.5 nM; format: protein-complex assay
[27] = target: Neuronal acetylcholine receptor; alpha2/beta4 (Homo sapiens, UniProt P30926+Q15822); experiment: Inhibitory concentration against Nicotinic acetylcholine receptor alpha2-beta4; Range is 0.3-1.5 nM; format: protein-complex assay
[28] = target: T3, Neuronal acetylcholine receptor; alpha4/beta2; experiment: Inhibitory concentration against Nicotinic acetylcholine receptor alpha4-beta2; Range is 0.3-1.5 nM; format: protein-complex assay
[29] = target: T4, Neuronal acetylcholine receptor; alpha4/beta4; experiment: Inhibitory concentration against Nicotinic acetylcholine receptor alpha4-beta4; Range is 0.3-1.5 nM; format: protein-complex assay
[30] = target: T5, Neuronal acetylcholine receptor subunit alpha-7; experiment: Inhibitory concentration against Nicotinic acetylcholine receptor alpha7; Range is 0.3-1.5 nM

**Q.** With `CC[C@H](C)[C@H](NC(=O)[C@H](CCC(N)=O)NC(=O)[C@@H]1CCCN1C(=O)[C@H](CC(N)=O)NC(=O)[C@H](Cc1cnc[nH]1)NC(=O)[C@@H](NC(=O)[C@@H](NC(=O)[C@H](CS)NC(=O)[C@@H](NC(=O)[C@@H]1CCCN1C(=O)[C@H](CC(N)=O)NC(=O)[C@H](CO)NC(=O)[C@H](CS)NC(=O)[C@H](CS)NC(=O)[C@@H]1CCCN1C(=O)[C@@H](N)CC(=O)O)C(C)C)[C@@H](C)O)C(C)C)C(=O)N[C@@H](CS)C(N)=O` (H-DPCCSNPVCTVHNPQIC-NH2) as the molecule, how does the pIC50 [1] read?
**A.** Its pIC50 is 9.00.

**Q.** And the pIC50 [2]?
**A.** Its pIC50 is 9.00.

**Q.** With `CC[C@H](C)[C@H](N)C(=O)N[C@@H](CCCN=C(N)N)C(=O)N[C@@H](CC(=O)O)C(=O)N[C@@H](CCC(=O)O)C(=O)N[C@@H](CS)C(=O)N[C@@H](CS)C(=O)N[C@@H](CO)C(=O)N[C@@H](CC(N)=O)C(=O)N1CCC[C@H]1C(=O)N[C@@H](C)C(=O)N[C@@H](CS)C(=O)N[C@@H](CCCN=C(N)N)C(=O)N[C@H](C(=O)N[C@@H](CC(N)=O)C(=O)N[C@@H](CC(N)=O)C(=O)N1C[C@H](O)C[C@H]1C(=O)N[C@@H](Cc1c[nH]cn1)C(=O)N[C@H](C(=O)N[C@@H](CS)C(N)=O)C(C)C)C(C)C` (H-IRDECCSNPACRVNN[Hyp]HVC-NH2) as the molecule, how does the pIC50 [3] read?
**A.** The pIC50 was 8.30.

**Q.** What about the pIC50 [4] of the same molecule?
**A.** The pIC50 was 8.30.

**Q.** And the pIC50 [5]?
**A.** The pIC50 was 8.30.

**Q.** And the pIC50 [6]?
**A.** Its pIC50 is 8.30.

**Q.** What about the pIC50 [7] of the same molecule?
**A.** Its pIC50 is 8.30.

**Q.** With `CC(C)C[C@H](NC(=O)[C@H](CC(N)=O)NC(=O)[C@H](CO)NC(=O)[C@H](Cc1c[nH]cn1)NC(=O)[C@H](CCC(=O)O)NC(=O)[C@H](CC(C)C)NC(=O)[C@H](Cc1c[nH]cn1)NC(=O)[C@H](CS)NC(=O)[C@@H](NC(=O)[C@@H]1CCCN1C(=O)[C@H](CC(N)=O)NC(=O)[C@H](CO)NC(=O)[C@H](CS)NC(=O)[C@H](CS)NC(=O)CN)C(C)C)C(=O)N[C@@H](CS)C(N)=O` as the molecule, how does the pIC50 [8] read?
**A.** The pIC50 was 8.10.

**Q.** And the pIC50 [9]?
**A.** The pIC50 was 8.10.

**Q.** And the pIC50 [10]?
**A.** The pIC50 was 8.10.

**Q.** And the pIC50 [11]?
**A.** Its pIC50 is 8.10.

**Q.** And the pIC50 [12]?
**A.** Its pIC50 is 8.10.

**Q.** With `CC(C)C[C@H](NC(=O)[C@H](CO)NC(=O)[C@H](CS)NC(=O)[C@H](CS)NC(=O)CN)C(=O)N1CCC[C@H]1C(=O)N1CCC[C@H]1C(=O)N[C@@H](CS)C(=O)N[C@@H](C)C(=O)N[C@@H](C)C(=O)N[C@@H](CC(N)=O)C(=O)N[C@@H](CC(N)=O)C(=O)N1CCC[C@H]1C(=O)N[C@@H](CC(=O)O)C(=O)N[C@@H](Cc1ccc(O)cc1)C(=O)N[C@@H](CS)C(N)=O` (H-GCCSLPPCAANNPDYC-NH2) as the molecule, how does the pIC50 [13] read?
**A.** Its pIC50 is 8.02.

**Q.** What about the pIC50 [14] of the same molecule?
**A.** Its pIC50 is 8.02.

**Q.** And the pIC50 [15]?
**A.** Its pIC50 is 8.02.

**Q.** What about the pIC50 [16] of the same molecule?
**A.** The pIC50 was 8.02.

**Q.** What does the source list for `CC(C)C[C@H](NC(=O)[C@@H](NC(=O)[C@H](C)NC(=O)[C@H](CS)NC(=O)[C@@H]1CCCN1C(=O)[C@@H]1CCCN1C(=O)[C@@H](NC(=O)[C@H](CO)NC(=O)[C@H](CS)NC(=O)[C@H](CS)NC(=O)CN)[C@@H](C)O)C(C)C)C(=O)N[C@@H](Cc1ccc(O)cc1)C(=O)N[C@@H](CS)C(=O)NCC(=O)N[C@@H](CCCN=C(N)N)C(=O)N[C@@H](CCCN=C(N)N)C(=O)N[C@H](C=O)CCCN=C(N)N` (H-GCCSTPPCAVLYCGRRR-aldehyde)?
**A.** pIC50 [17]: 8.82; pIC50 [18]: 8.82

**Q.** With `CC[C@H](C)[C@H](NC(=O)[C@H](CCC(N)=O)NC(=O)[C@@H]1CCCN1C(=O)[C@H](CC(N)=O)NC(=O)[C@H](Cc1c[nH]cn1)NC(=O)[C@@H](NC(=O)[C@@H](NC(=O)[C@H](CS)NC(=O)[C@@H](NC(=O)[C@@H]1CCCN1C(=O)[C@H](CC(N)=O)NC(=O)[C@H](CO)NC(=O)[C@H](CS)NC(=O)[C@H](CS)NC(=O)[C@@H]1CCCN1C(=O)[C@@H](N)CC(=O)O)C(C)C)[C@@H](C)O)C(C)C)C(=O)N[C@@H](CS)C(N)=O` (H-DPCCSNPVCTVHNPQIC-NH2) as the molecule, how does the pIC50 [19] read?
**A.** Its pIC50 is 9.00.

**Q.** What about the pIC50 [20] of the same molecule?
**A.** The pIC50 was 9.00.

**Q.** With `C[C@H](NC(=O)[C@H](CS)NC(=O)[C@H](CCCN=C(N)N)NC(=O)[C@@H]1CCCN1C(=O)[C@H](CC(=O)O)NC(=O)[C@H](CO)NC(=O)[C@H](CS)NC(=O)[C@H](CS)NC(=O)CN)C(=O)N[C@@H](Cc1c[nH]c2ccccc12)C(=O)N[C@@H](CCCN=C(N)N)C(N)=O` (H-GCCSDPRCAWR-NH2) as the molecule, how does the pIC50 [21] read?
**A.** The pIC50 was 6.70.

**Q.** What about the pIC50 [22] of the same molecule?
**A.** The pIC50 was 6.70.

**Q.** And the pIC50 [23]?
**A.** Its pIC50 is 6.70.

**Q.** With `CC(C)C[C@H](NC(=O)[C@@H](NC(=O)[C@H](C)NC(=O)[C@H](CS)NC(=O)[C@@H]1CCCN1C(=O)[C@@H]1CCCN1C(=O)[C@@H](NC(=O)[C@H](CO)NC(=O)[C@H](CS)NC(=O)[C@H](CS)NC(=O)CN)[C@@H](C)O)C(C)C)C(=O)N[C@@H](Cc1ccc(O)cc1)C(=O)N[C@@H](CS)C(=O)NCC(=O)N[C@@H](CCCNC(=N)N)C(=O)N[C@@H](CCCNC(=N)N)C(=O)N[C@H](C=O)CCCNC(=N)N` (H-GCCSTPPCAVLYCGRRR-aldehyde) as the molecule, how does the pIC50 [24] read?
**A.** The pIC50 was 8.82.

**Q.** And the pIC50 [25]?
**A.** Its pIC50 is 8.82.

**Q.** What about the pIC50 [26] of the same molecule?
**A.** The pIC50 was 8.82.

**Q.** And the pIC50 [27]?
**A.** The pIC50 was 8.82.

**Q.** And the pIC50 [28]?
**A.** The pIC50 was 8.82.

**Q.** What about the pIC50 [29] of the same molecule?
**A.** Its pIC50 is 8.82.

**Q.** What about the pIC50 [30] of the same molecule?
**A.** The pIC50 was 8.82.
